According to patent publication US20100297194A1, “FORMULATION FOR ORAL ADMINISTRATION OF APOPTOSIS PROMOTER” (priority 2009, published 2010):
Structures can show the parent of a compound that is named as a salt.

Legend:
Assay type in all cases: physicochemical
[1] = solubility in lipid solvents (Example 1); conditions: ambient conditions, listed as ABT-263 bis-HCl salt;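 further: solubility in mg/g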
Description: Solubility of ABT-263 parent (free base, crystalline Form I) and ABT-263 bis-HCl salt was tested in a variety of lipid solvents and solvent mixtures in ambient conditions. “PE-91” is Phosal 53 MCT™+ethanol, 9:1 by volume. “LOT-343” is Labrafil M 1944 CS™+oleic acid+Tween 80™, 30:40:30 by weight.
In some cases, indicated in Table 4 by an asterisk (*), solubility was initially high but precipitation occurred upon standing.

[2] = drug solubility in ternary excipient systems (Example 2); design: key: ✓: vehicle miscible, or drug fully dissolved in vehicle; conditions: 10% salt, 20% free base
Excerpt: (§1) Solvents evaluated included Labrafil M 1944 CS™, Imwitor 742™ oleic acid, Capmul PG-8™, Capmul PG-12™, Lauroglycol 90™ and Phosal 53 MCT™. Surfactants evaluated included Tween™ 80, Cremophor RH40™, Gelucire 44/14™ and Labrasol™.

[3] = as above; design: key: ✓: vehicle miscible, or drug fully dissolved in vehicle; X: vehicle immiscible or miscible but turbid, or residual solids present (due to undissolved drug or precipitation); conditions: 10% salt, 20% free base
Excerpt: as §1

- Solubility ([1]; in Capmul MCM): >321 mg/g
- Solubility ([1]; in Capmul PG-8): <43 mg/g
- Solubility ([1]; in Capmul PG-12): <39 mg/g
- Solubility ([1]; in Captex 300): <52 mg/g
- Solubility ([1]; in Imwitor 742): >245 mg/g
- Solubility ([1]; in Labrafil M 1944 CS): <45 mg/g
- Solubility ([1]; in Labrafil M 2125 CS): <44 mg/g
- Solubility ([1]; in Labrasol): >292 mg/g
- Solubility ([1]; in Lipoid S75 MCT): 48.9 mg/g
- Solubility ([1]; in Miglyol 810): <84 mg/g
- Solubility ([1]; in PE-91 (Phosal 53 MCT+ethanol 9:1 by volume)): 89 mg/g
- Solubility ([1]; in PEG-400): >278 mg/g
- Solubility ([1]; in Tween 20): >176 mg/g
- Solubility ([1]; in Tween 80): >125 mg/g
- Solubility ([1]; in castor oil): >78.8 mg/g
- Solubility ([1]; in corn oil): <104 mg/g
- Solubility ([1]; in oleic acid): <498 mg/g
- Solubility ([1]; in poloxamer 124): <41 mg/g
- Solubility ([1]; in propylene glycol): >337 mg/g
- Solubility ([1]; in sesame oil): <80 mg/g
- ABT-263 solubility ([2]; C8LL (Capmul PG-8/Labrafil M 1944 CS/Labrasol) 40:40:20 by weight): ✓
- ABT-263 solubility ([2]; C12LT (Capmul PG-12/Labrafil M 1944 CS/Tween 80) 30:40:30 by weight): ✓
- ABT-263 solubility ([2]; C12LT (Capmul PG-12/Labrafil M 1944 CS/Tween 80) 35:40:25 by weight): ✓
- ABT-263 solubility ([2]; C12LT (Capmul PG-12/Labrafil M 1944 CS/Tween 80) 40:30:30 by weight): ✓
- ABT-263 solubility ([2]; C12LT (Capmul PG-12/Labrafil M 1944 CS/Tween 80) 45:30:25 by weight): ✓
- ABT-263 solubility ([2]; ILC (Imwitor 742/Labrafil M 1944 CS/Cremophor RH40) 50:30:20 by weight, listed as ABT-263 bis-HCl salt): ✓
- ABT-263 solubility ([2]; ILC (Imwitor 742/Labrafil M 1944 CS/Cremophor RH40) 50:40:10 by weight, listed as ABT-263 bis-HCl salt): ✓
- ABT-263 solubility ([2]; ILC (Imwitor 742/Labrafil M 1944 CS/Cremophor RH40) 60:30:10 by weight, listed as ABT-263 bis-HCl salt): ✓
- ABT-263 solubility ([2]; ILL (Imwitor 742/Labrafil M 1944 CS/Labrasol) 40:40:20 by weight, listed as ABT-263 bis-HCl salt): ✓
- ABT-263 solubility ([2]; ILL (Imwitor 742/Labrafil M 1944 CS/Labrasol) 50:30:20 by weight, listed as ABT-263 bis-HCl salt): ✓
- ABT-263 solubility ([2]; ILL (Imwitor 742/Labrafil M 1944 CS/Labrasol) 50:40:10 by weight, listed as ABT-263 bis-HCl salt): ✓
- ABT-263 solubility ([2]; ILL (Imwitor 742/Labrafil M 1944 CS/Labrasol) 60:30:10 by weight, listed as ABT-263 bis-HCl salt): ✓
- ABT-263 solubility ([2]; LIT (Labrafil M 1944 CS/Imwitor 742/Tween 80) 30:40:30 by weight, listed as ABT-263 bis-HCl salt): ✓
- ABT-263 solubility ([2]; LIT (Labrafil M 1944 CS/Imwitor 742/Tween 80) 40:30:30 by weight, listed as ABT-263 bis-HCl salt): ✓
- ABT-263 solubility ([2]; LLL (Lauroglycol 90/Labrafil M 1944 CS/Labrasol) 40:40:20 by weight): ✓
- ABT-263 solubility ([2]; LLL (Lauroglycol 90/Labrafil M 1944 CS/Labrasol) 50:30:20 by weight): ✓
- ABT-263 solubility ([2]; LLL (Lauroglycol 90/Labrafil M 1944 CS/Labrasol) 50:40:10 by weight, listed as ABT-263 bis-HCl salt): ✓
- ABT-263 solubility ([2]; LLL (Lauroglycol 90/Labrafil M 1944 CS/Labrasol) 60:30:10 by weight, listed as ABT-263 bis-HCl salt): ✓
- ABT-263 solubility ([2]; LOT (Labrafil M 1944 CS/oleic acid/Tween 80) 30:40:30 by weight): ✓
- ABT-263 solubility ([2]; LOT (Labrafil M 1944 CS/oleic acid/Tween 80) 30:45:25 by weight): ✓
- ABT-263 solubility ([2]; LOT (Labrafil M 1944 CS/oleic acid/Tween 80) 40:30:30 by weight): ✓
- ABT-263 solubility ([2]; LOT (Labrafil M 1944 CS/oleic acid/Tween 80) 40:35:25 by weight): ✓
- ABT-263 solubility ([2]; OLL (oleic acid/Labrafil M 1944 CS/Labrasol) 40:40:20 by weight): ✓
- ABT-263 solubility ([2]; OLL (oleic acid/Labrafil M 1944 CS/Labrasol) 50:30:20 by weight): ✓
- ABT-263 solubility ([2]; OLL (oleic acid/Labrafil M 1944 CS/Labrasol) 50:40:10 by weight): ✓
- ABT-263 solubility ([2]; OLL (oleic acid/Labrafil M 1944 CS/Labrasol) 60:30:10 by weight): ✓
- ABT-263 solubility ([3]; C8LL (Capmul PG-8/Labrafil M 1944 CS/Labrasol) 50:30:20 by weight): X
- ABT-263 solubility ([3]; C8LL (Capmul PG-8/Labrafil M 1944 CS/Labrasol) 50:40:10 by weight): X
- ABT-263 solubility ([3]; C8LL (Capmul PG-8/Labrafil M 1944 CS/Labrasol) 60:30:10 by weight): X
- ABT-263 solubility ([3]; C8LT (Capmul PG-8/Labrafil M 1944 CS/Tween 80) 30:40:30 by weight): X
- ABT-263 solubility ([3]; C8LT (Capmul PG-8/Labrafil M 1944 CS/Tween 80) 35:40:25 by weight): X
- ABT-263 solubility ([3]; C8LT (Capmul PG-8/Labrafil M 1944 CS/Tween 80) 40:30:30 by weight): X
- ABT-263 solubility ([3]; C8LT (Capmul PG-8/Labrafil M 1944 CS/Tween 80) 45:30:25 by weight): X
Compound: CC1(C)CCC(c2ccc(Cl)cc2)=C(CN2CCN(c3ccc(C(=O)NS(=O)(=O)c4ccc(N[C@H](CCN5CCOCC5)CSc5ccccc5)c(S(=O)(=O)C(F)(F)F)c4)cc3)CC2)C1 [ABT-263 bis-HCl]
